Experimental data published in patent publication US12576083B2, “Combinational therapy of LSD1 inhibitors with P21 activators in the treatment of cancer” (Istituto Europeo di Oncologia S.r.l., priority 2017, dated 2026).
“Also recorded” adds a separate entry of the source.

How the values were obtained:
MMC-38B and MMC-34 cells [1] = assay: Cell cycle analysis of MMC-38B and MMC-34 melanoma cells; format: cell-based, human; conditions: MMC-38B and MMC-34, rescued by p21 knock-down
Protocol: FIG. 16B depicts cell-cycle status of melanoma cells analyzed in FIG. 16A.
(§1) MMC-38B and MMC-34 cells were treated with p21-shRNA (“P21KD-DMSO”), scramble shRNA (“SCR-DMSO”), scramble shRNA plus LSD1 inhibitor (MC2580) (“SCR-LSD1i”), or p21-shRNA plus MC2580 (“P21KD-LSD1i”). Tubulin was used as a loading control.

p21 [2] = assay: Western-blot of p21 in NCI-H69 cells; format: cell-based
Protocol: (§2) FIGS. 8A-8D. […] (FIG. 8B) Relative proliferation of NCI-H69 cells infected with SCR (control) or p21 shRNA treated with MC2580. (FIG. 8C) Summary of cell-cycle status of NCI-H69 cells following 10 days treatment with indicated inhibitors. (FIG. 8D) Immunoblot of P21 in MC2580-treated NCI-H69 cells. (SCR=Scramble shRNA, NI=Not Infected, LSD1i=LSD1 inhibitor=MC2580).
(§3) NCI-H69 cells were treated with p21-shRNA, scramble shRNA (SCR), LSD1 inhibitor MC2580, p21-shRNA plus MC2580, scramble shRNA (SCR) plus MC2580. Non-infected (NI) NCI-H69 cells were included as control. The proliferation of the treated cells were quantified before treatment and post-treatment from day 2, day 4, day 6, day 8, and day 10 (FIG. 8B). Cell cycle analysis were performed following the 1 week treatment.

UF1 cells = assay: Cell cycle analysis of UF1 cells; format: cell-based; conditions: 1 week treatment
Protocol: Acute promyelocytic leukemia (APL) UF1 cells were treated with 2 μM LSD1 inhibitor MC2580, 10 nM retinoic acid (RA), 2 μM LSD1 inhibitor MC2580 plus 10 nM RA, and DMSO (control) for 7 days. The proliferation of the treated cells were quantified before treatment and post-treatment from each of day 2 to day 7 (FIG. 2A). The cells following the 1 week treatment were analyzed under light micrographs using Wright-Giemsa staining (FIG. 2B). The LSD1-inhibition induced expression of CD11b gene expression were analyzed. The mRNA of CD11b of the treated cells under each condition were normalized using GAPDH (FIG. 2C). PML-RARα protein level in the treated cells was analyzed by immune-blotting using an antibody against PML-RARα. Immuno-blotting of tubulin was used as loading control. (FIG. 2D). […] Cell cycle analysis were performed following the 1 week treatment. […] (FIG. 2E).
as §3, with “UF1” for “NCI-H69”, “from each of” for “from”, “2 to” for “2,”, “7” for “4, day 6, day 8, and day 10”, “5C). The cells following the 1 week treatment were analyzed under light micrographs using Wright-Giemsa staining (FIG. 5D).” for “8B).”, “treatment. […] (FIG. 5E).” for “treatment.”

p21 [3] = assay: Western-blot of p21 in Kasumi cells; format: cell-based
Text: FIGS. 7A-7F. […] (FIG. 7C) Relative proliferation of Kasumi cells infected with SCR (control) or p21 shRNA treated with MC2580. (FIG. 7D) Representative light micrograph show Wright-Giemsa staining of Kasumi cells after 1 week treatment with indicated inhibitors. (FIG. 7E) summary of cell-cycle status of Kasumi cells following 1 week treatment with indicated inhibitors. (FIG. 7F) Immunoblot of P21 in MC2580-treated Kasumi cells. (SCR=Scramble shRNA, NI=Not Infected, LSD1i=LSD1 inhibitor=MC2580).
as §3, with “Kasumi” for “NCI-H69”, “4,” for “4, day 6, day 8,”, “7” for “10”, “7C). The cells following the 1 week treatment were analyzed under light micrographs using Wright-Giemsa staining (FIG. 7D).” for “8B).”

p21 [4] = assay: p21 expression (immunoblotting) in MMC-38B and MMC-34 melanoma cells; format: cell-based, human; conditions: MMC-38B and MMC-34, rescued by p21 knock-down
Protocol: FIG. 16C depicts the p21 expression level in melanoma cells analyzed in FIG. 16A.
as §1

[5] = test system: Acute promyelocytic leukemia (APL) NB4 cells; assay: NB4 cells treated with MC2580: proliferation, Wright-Giemsa staining, serial replating CFU assay; format: cell-based; conditions: 2 μM, 6 days, DMSO control
Protocol: FIGS. 1A-1C. […] (FIG. 1A) Relative proliferation of NB4 APL cells treated with MC2580 ([…]) and RA ([…]) for indicated times (DMSO serves as control). (FIG. 1B) Representative light micrographs show Wright-Giemsa staining of NB4 cell after treatment for 6 days. (DMSO serves as a control). (FIG. 1C) Analysis of the proliferative potential of treated NB4 cells by serial replating assay. (DMSO serves as control). (RA high(h)=retinoic acid, 1 μM, LSD1i=LSD1 inhibitor=MC2580).
Acute promyelocytic leukemia (APL) NB4 cells were treated with 2 μM LSD1 inhibitor MC2580, 1 μM retinoic acid (RA), and DMSO (control) for 6 days. The proliferation of the treated cells were quantified before treatment and during each of the 6 days (FIG. 1A). The treated cells were analyzed under light micrographs using Wright-Giemsa staining (FIG. 1B). The proliferation potential of the treated cells were analyzed by serial replating and Colony-Forming Unit (CFU) Assay (FIG. 1C).

PML-RARα = assay: Immunoblot of PML-RARα in treated UF1 cells; format: cell-based; conditions: tubulin loading control
Protocol: (§4) FIGS. 2A-2E. […] (FIG. 2A) Relative proliferation of UF1 cells treated with MC2580 (2 μM) and/or retinoic acid (10 nM) for 1 week. (FIG. 2B) Representative light micrograph show Wright-Giemsa staining of UF1 cell after treatment for 1 week. […] Values are normalized against GAPDH. (FIG. 2D) Immunoblot of PML-RARα in treated UF1 cells with indicated inhibitors. LSD1 inhibitors induces differentiation without PML-RARα degradation. (tubulin serves as control). (FIG. 2E) summary of cell-cycle status of UF1 cells following 1 week treatment with indicated inhibitors. (retinoic acid low(l)=10 nM, LSD1i=LSD1 inhibitor=MC2580).
(§5) Acute promyelocytic leukemia (APL) UF1 cells were treated with 2 μM LSD1 inhibitor MC2580, 10 nM retinoic acid (RA), 2 μM LSD1 inhibitor MC2580 plus 10 nM RA, and DMSO (control) for 7 days. The proliferation of the treated cells were quantified before treatment and post-treatment from each of day 2 to day 7 (FIG. 2A). The cells following the 1 week treatment were analyzed under light micrographs using Wright-Giemsa staining (FIG. 2B). The LSD1-inhibition induced expression of CD11b gene expression were analyzed. The mRNA of CD11b of the treated cells under each condition were normalized using GAPDH (FIG. 2C). PML-RARα protein level in the treated cells was analyzed by immune-blotting using an antibody against PML-RARα. Immuno-blotting of tubulin was used as loading control. […]

p21 gene = assay: Chromosome Conformation Capture assays (3C-qPCR) in UF1 and NB4 cells; format: cell-based; conditions: UF1 and NB4 cells, 12, 24, or 36 hours
Protocol: FIG. 27 depicts results from chromosome conformation capture assays (3C-qPCR) performed with chromatin from UF1 and NB4 cells that were treated for indicated times with the LSD1 inhibitor MC2580. (NT: not treated).
Luciferase reporter assays were performed to measure the activity of enhancer 1 (“E1”) and enhancer 1 (“E2”) of the p21 gene promoter in 293T cells and the results are depicted in FIG. 26. The pGL3 plasmid without the enhancer region (empty) was used as a negative control. Chromosome Conformation Capture assays (3C-qPCR) were performed with chromatin from UF1 and NB4 cells that were treated with the LSD1 inhibitor MC2580 for 12, 24, or 36 hours and the results are depicted in FIG. 27. Untreated cells (“Neg”) were included as control.

[6] = test system: primary human melanoma cell lines (MMC-27B, MMC-49, MMC-936, MMC-35, MMC-38B, MMC-34); assay: Proliferation of six primary human melanoma cell lines with or without MC2580; format: cell-based; conditions: MC2580 2 μM, 6 days, versus cell lines having a shorter doubling time
Protocol: FIG. 14 depicts the proliferation of six primary human melanoma cell lines (MMC-27B, MMC-49, MMC-936, MMC-35, MMC-38B, MMC-34) over 6 days with or without treatment of LSD1 inhibitor MC2580 (2 μM) was analyzed. “MC” stands for MC2580 treated cells. “DMSO” stands for control cells treated with DMSO.
The proliferation of six primary human melanoma cell lines (MMC-27B, MMC-49, MMC-936, MMC-35, MMC-38B, MMC-34) over 6 days with or without treatment of an LSD1 inhibitor (MC2580) was analyzed. “MC” stands for MC2580 treated cells. Control cells (“DMSO”) were treated with DMSO.

p21 [7] = assay: p21 protein (Western-blot) and p21 gene expression in UF1 cells; format: cell-based
Protocol: FIGS. 6A-6B. LSD1 inhibition leads to further upregulation of P21 RNA and protein level but not in P21KD cells. (FIG. 6A) Immunoblot of P21 in MC2580-treated UF1 cells. […] (SCR=Scramble shRNA, NI=Not Infected, LSD1i=LSD1 inhibitor=MC2580).
UF1 cells were treated with p21-shRNA, scramble shRNA (SCR), LSD1 inhibitor MC2580, p21-shRNA plus MC2580, scramble shRNA (SCR) plus MC2580. Non-infected (NI) UF1 cells were included as control. Immuno-blotting of tubulin was used as loading control.

NB4 cells = NB4 cells treated with HDAC inhibitors with or without MC2580: proliferation, staining, cell cycle analysis; format: cell-based; conditions: versus untreated control cells (Scr-DMSO), 1 week treatment
Text: FIGS. 10A-10D. […] (FIG. 10A) Relative proliferation of NB4 cells infected with SCR (control) or p21 shRNA and treated with HDAC inhibitor and/or MC2580. (FIG. 10B and FIG. 10C) Representative light micrograph show Wright-Giemsa staining of NB4 cells infected with SCR (control) or p21 shRNA and treated with HDAC inhibitor and/or MC2580. (FIG. 10D) Summary of cell-cycle status of NB4 cells infected with SCR (control) or p21 shRNA and treated with HDAC inhibitor and/or MC2580. (SCR=Scramble shRNA, NI=Not Infected, LSD1i=LSD1 inhibitor=MC2580).
NB4 cells were treated with HDAC inhibitors, trichostatin A (TSA) and suberoylanilide hydroxamic acid (SAHA), in combination with p21-shRNA or scramble shRNA (SCR), with or without LSD1 inhibitor MC2580. NB4 cells with p21 knock-down without HDAC inhibitor treatment (p21KD-DMSO), NB4 cells without p21 knock-down and without HDAC inhibitor treatment (Scr-DMSO) were included as control. The proliferation of the treated cells were quantified before treatment and post-treatment from day 2, day 4, and day 6 (FIG. 10A). The treated cells were analyzed under light micrographs using Wright-Giemsa staining (FIG. 10B and FIG. 10C). Cell cycle analysis were performed following the 1 week treatment.

[8] = test system: small cell lung carcinoma NCI-H69 cells; assay: Cell cycle analysis of NCI-H69 cells; format: cell-based; conditions: 1 week treatment
Protocol: as §2, §3

Kasumi cells = assay: Cell cycle analysis of Kasumi cells; format: cell-based; conditions: 1 week treatment
Protocol: as §3, with “Kasumi” for “NCI-H69”, “4,” for “4, day 6, day 8,”, “7” for “10”, “7C). The cells following the 1 week treatment were analyzed under light micrographs using Wright-Giemsa staining (FIG. 7D).” for “8B).”

MMC-38B and MMC-34 cells [9] = assay: Proliferation of MMC-38B and MMC-34 melanoma cells with shRNA and MC2580; format: cell-based, human; conditions: MMC-38B and MMC-34, 6 days, rescued by p21 knock-down
Protocol: FIG. 16A depicts relative proliferation of melanoma cells (MMC-38B and MMC-34) that were treated with p21-shRNA (“P21KD-DMSO”), scramble shRNA (“SCR-DMSO”), scramble shRNA plus LSD1 inhibitor MC2580 (“SCR-LSD1i”), or p21-shRNA plus MC2580 (“P21KD-LSD1i”). Data are presented as mean of triplicates±SD.
as §1

CD11b gene = CD11b gene expression in UF1 cells (mRNA normalized against GAPDH); format: cell-based
Protocol: as §4, §5

[10] = test system: Acute promyelocytic leukemia (APL) UF1 cells; assay: UF1 cells treated with MC2580: proliferation and Wright-Giemsa staining; format: cell-based; conditions: 2 μM, 7 days, DMSO control
Protocol: as §4, §5

With NC1CC1c1ccc(NC(=O)C(Cc2ccccc2)NC(=O)OCc2ccccc2)cc1 (centres unmarked) [MC2580] the “cell cycle of human primary melanoma cells” value (MMC-38B and MMC-34 cells [1]) was “cell cycle arrest”, the “p21 protein level in NCI-H69 cells” value (p21 [2]) was “increased” and the “UF1 cells arrested at the G0/G1 phase” value (UF1 cells) was “More UF1 cells were arrested at the G0/G1 phase”. The “p21 protein level in Kasumi cells” value (p21 [3]) was “increased”, the “p21 expression in human primary melanoma cells” value (p21 [4]) was “increase of p21 expression” and the “sensitivity of NB4 cells to LSD1 inhibitor” value [5] was “resistant to LSD1 inhibition; also recorded: largely insensitive”. For the same molecule, the “UF1 cell differentiation and PML-RARα degradation” value (PML-RARα) was “induces UF1 cells differentiation without PML-RARα degradation”, the “looping of E1 and E2 enhancer regions to the transcription start site of the p21 gene” value (p21 gene) was “induces dynamic looping” and the “proliferation of slow-cycling melanoma cell lines (MMC-38B, MMC-34)” value [6] was “more affected”. The “p21 gene (CDKN1A) expression in UF1 cells” value (p21 [7]) was “induces p21 expression; also recorded: expressed at a higher level”, the “p21 protein level in UF1 cells” value (p21 [7]; Western-blot, tubulin loading control) was “increased” and the “NB4 cells arrested at the G0/G1 phase, LSD1 inhibitor alone” value (NB4 cells) was “More NB4 cells were arrested at the G0/G1 phase”. The “NCI-H69 cells arrested at the G0/G1 phase” value [8] was “More NCI-H69 cells were arrested at the G0/G1 phase”, the “Kasumi cells arrested at the G0/G1 phase” value (Kasumi cells) was “More Kasumi cells were arrested at the G0/G1 phase” and the “cell growth of human primary melanoma cells” value (MMC-38B and MMC-34 cells [9]) was “cell growth inhibition”. The “expression of the CD11b gene (myeloid differentiation marker)” value (CD11b gene) was “induces expression of the CD11b gene” and the “sensitivity of UF1 cells to LSD1 inhibitor” value [10] was “sensitive”.
